≈ marks a conversion by molar mass, not a printed value. Where two headings read alike, the source gives them in different places.
Tests used:
[1] = system: quinolone-resistant Haemophilus influenzae strains; assay: Microdilution MIC determination in HTM for quinolone-resistant Haemophilus influenzae strains; format: cell-based
Method: Inocula were prepared from chocolate agar plates incubated for a full 24 hours by the direct colony suspension method as follows: In a tube of Mueller-Hinton broth (Difco), an organism suspension was made to a density of a 0.5 McFarland standard (1×10^8 CFU/ml). The latter inoculum was diluted in sterile saline such that final organisms suspensions in trays yielded colony counts of 3-8×10^5 CFU/ml. Frozen microdilution trays were obtained from MicroMedia Systems, Inc. (Cleveland, Ohio, USA). Each tray contained all antimicrobials prepared in freshly made HTM. Wells were inoculated with 100 μl suspensions and incubated in ambient air at 35° C. for 20-24 hours. The lowest drug concentration showing no growth was read as the MIC. Standard quality control strains, including H. influenzae ATCC 49766, H. influenzae ATCC 49247, Staphylococcus aureus ATCC 29213 and Escherichia coli ATCC 25922 were included with each run.

[2] = system: quinolone susceptible pneumococci (ciprofloxacin MICs ≦4.0 μg/ml); assay: Agar dilution MICs of 207 quinolone susceptible pneumococcal strains; format: cell-based, Streptococcus pneumoniae; details: Streptococcus pneumoniae, agar dilution; for MIC90: read-out: MIC90; for MIC: read-out: MIC range
Method: All susceptible, and some intermediate and resistant strains, were recent U.S. isolates. The remainder of intermediate and resistant strains were isolated in South Africa, Spain, France, Central and Eastern Europe, and Korea. […] Additionally these strains were tested for mutations in parC, gyrA, parE, and gyrB (Pan, et al., Antimicrob. Agents Chemother. 40:2321-2326, 1996) and for efflux mechanism (Brenwald, et al., Antimicrob. Agents Chemother. 42:2032-2035, 1998). For time-kill studies, 4 penicillin susceptible, 4 intermediate and 4 resistant strains (2 quinolone resistant) were tested, while for PAE studies 5 quinolone susceptible and 1 resistant strains were studied.
(§1) Agar dilution methodology was performed on 234 strains as described previously (M. R. Jacobs, Clin. Infect. Dis. 15:119-127, 1992; Jacobs, et al., Rev. Med. Microbiol. 6:77-93, 1995), using Mueller-Hinton agar (BBL Microbiology Systems, Cockeysville, Md.) supplemented with 5% sheep blood. Broth MICs for 12 strains tested by time-kill and 6 tested by PAE were performed according to NCCLS recommendations (Methods for Dilution Antimicrobial Susceptibility Tests for Bacteria that Grow Aerobically, 3rd Edition, NCCLS, Villanova, Pa.) using cation-adjusted Mueller-Hinton broth with 5% lysed defibrinated horse blood. Standard quality control strains, including Streptococcus pneumoniae ATCC 49619, were included in each run of agar and broth dilution MICs.

pneumococcal strains = assay: Microbroth dilution MICs of strains tested by time-kill and PAE; format: cell-based; details: Streptococcus pneumoniae, read-out: Microdilution MIC
Method: as §1

[3] = strain 1, mutations S133-A N138-S, None, S84-L
[4] = strain 2, mutations NONE, S458-L, S84-F, None
[5] = strain 3, mutations S84-I, None, S84-L
[6] = strain 4, mutations D83-N, S458-S-T459, S84-F D88-N, Q468-R
[7] = strain 5, mutations E88-K, G405-S, S84-Y, None
[8] = strain 6, mutations S84-R, D420-N, S84-L A117-E, None
[9] = strain 7, mutations S84-R, D420-N, S84-L A117-E, None
[10] = strain 8, mutations S84-R, D420-N, S84-L A117-E, None
[11] = strain 9, mutations S84-R N138-S, S458-A S474-N, S84-F D88-Y, None
[12] = strain 1, GyrA S84→L, ParC S133→A N138→S, GyrB None, ParE None
[13] = strain 2, GyrA S84→F, ParC None, GyrB None, ParE S458→L
[14] = strain 3, GyrA S84→L, ParC S84→I, GyrB None, ParE None
[15] = strain 4, GyrA S84→F D88→N, ParC D83→N, GyrB None, ParE T459→S
[16] = strain 5, GyrA S84→Y, ParC E88→K, GyrB Q468→R, ParE G405→S
[17] = strain 6, GyrA S84→L A117→E, ParC S84→R, GyrB None, ParE D420→N
[18] = strain 7, GyrA S84→L A117→E, ParC S84→R, GyrB None, ParE D420→N
[19] = strain 8, GyrA S84→L A117→E, ParC S84→R, GyrB None, ParE D420→N
[20] = strain 9, GyrA S84→F D88→Y, ParC S84→R N138→S, GyrB None, ParE S458→A S474→N

Compound C[C@H]1COc2c(N3CCN(C)CC3)c(F)cc3c(=O)c(C(=O)O)cn1c23 [Levo] has an MIC [1, 3] of 0.5 µg/mL (≈ 1.38 µM), an MIC [1, 4] of 0.25 µg/mL (≈ 0.692 µM) and an MIC [1, 5] of 1 µg/mL (≈ 2.77 µM). It also gave an MIC [1, 6] of 0.5 µg/mL (≈ 1.38 µM), an MIC [1, 7] of 1 µg/mL (≈ 2.77 µM) and an MIC [1, 8] of 2 µg/mL (≈ 5.53 µM). The MIC [1, 9] was 2 µg/mL (≈ 5.53 µM), the MIC [1, 10] was 2 µg/mL (≈ 5.53 µM) and the MIC [1, 11] was 4 µg/mL (≈ 11.1 µM).
In the case of CC1(C)S[C@@H]2[C@H](NC(=O)Cc3ccccc3)C(=O)N2[C@H]1C(=O)O [Penicillin, penicillin G], the MIC50 ([2]; Penicillin I strains) is reported as 0.25 µg/mL (≈ 0.748 µM), the MIC90 ([2]; Penicillin I strains) is reported as 1 µg/mL (≈ 2.99 µM) and the MIC ([2]; Penicillin I strains) is reported as 0.125 to 1 µg/mL (≈ 0.374 to 2.99 µM). The MIC50 ([2]; Penicillin R strains) was 4 µg/mL (≈ 12 µM), the MIC90 ([2]; Penicillin R strains) was 4 µg/mL (≈ 12 µM) and the MIC ([2]; Penicillin R strains) was 2 to 16 µg/mL (≈ 5.98 to 47.8 µM). For the same compound, the MIC50 ([2]; Penicillin S strains) was 0.016 µg/mL (≈ 0.0478 µM), the MIC90 ([2]; Penicillin S strains) was 0.03 µg/mL (≈ 0.0897 µM) and the MIC ([2]; Penicillin S strains) was 0.008 to 0.06 µg/mL (≈ 0.0239 to 0.179 µM). It also gave an MIC (pneumococcal strains; strain 1 (S) penicillin susceptible) of 0.06 µg/mL (≈ 0.179 µM), an MIC (pneumococcal strains; strain 2 (S) penicillin susceptible) of 0.03 µg/mL (≈ 0.0897 µM) and an MIC (pneumococcal strains; strain 3 (S) penicillin susceptible, quinolone-resistant) of 0.016 µg/mL (≈ 0.0478 µM). It also gave an MIC (pneumococcal strains; strain 4 (S) penicillin susceptible, quinolone-resistant) of 0.016 µg/mL (≈ 0.0478 µM), an MIC (pneumococcal strains; strain 5 (I) penicillin intermediate) of 0.25 µg/mL (≈ 0.748 µM) and an MIC (pneumococcal strains; strain 6 (I) penicillin intermediate) of 0.25 µg/mL (≈ 0.748 µM). It also gave an MIC (pneumococcal strains; strain 7 (I) penicillin intermediate) of 1 µg/mL (≈ 2.99 µM), an MIC (pneumococcal strains; strain 8 (I) penicillin intermediate) of 0.5 µg/mL (≈ 1.5 µM) and an MIC (pneumococcal strains; strain 9 (R) penicillin resistant) of 4 µg/mL (≈ 12 µM). It also gave an MIC (pneumococcal strains; strain 10 (I)) of 2 µg/mL (≈ 5.98 µM), an MIC (pneumococcal strains; strain 11 (R) penicillin resistant) of 4 µg/mL (≈ 12 µM) and an MIC (pneumococcal strains; strain 12 (R) penicillin resistant) of 4 µg/mL (≈ 12 µM).
Work on C[C@@H]1CN(c2c(F)c(N)c3c(=O)c(C(=O)O)cn(C4CC4)c3c2F)C[C@H](C)N1 [Spa] yielded an MICs [1, 12] of 0.25 µg/mL, an MICs [1, 13] of 0.25 µg/mL and an MICs [1, 14] of 0.5 µg/mL. It also gave an MICs [1, 15] of 0.25 µg/mL, an MICs [1, 16] of 1 µg/mL and an MICs [1, 17] of 1 µg/mL. It also gave an MICs [1, 18] of 1 µg/mL, an MICs [1, 19] of 1 µg/mL and an MICs [1, 20] of 8 µg/mL.
C[C@@H]1CN(c2c(F)c(N)c3c(=O)c(C(=O)O)cn(C4CC4)c3c2F)C[C@H](C)N1 [Spar] was tested, and the MIC [1, 3] was 0.25 µg/mL (≈ 0.637 µM), the MIC [1, 4] was 0.25 µg/mL (≈ 0.637 µM) and the MIC [1, 5] was 0.5 µg/mL (≈ 1.27 µM). The MIC [1, 6] was 0.25 µg/mL (≈ 0.637 µM), the MIC [1, 7] was 1 µg/mL (≈ 2.55 µM) and the MIC [1, 8] was 1 µg/mL (≈ 2.55 µM). The MIC [1, 9] was 1 µg/mL (≈ 2.55 µM), the MIC [1, 10] was 1 µg/mL (≈ 2.55 µM) and the MIC [1, 11] was 8 µg/mL (≈ 20.4 µM).
For N[C@@H]1[C@H]2CN(c3nc4c(cc3F)c(=O)c(C(=O)O)cn4-c3ccc(F)cc3F)C[C@@H]12 [Tro], the MICs [1, 12] was 1 µg/mL, the MICs [1, 13] was 0.25 µg/mL and the MICs [1, 14] was 1 µg/mL. The MICs [1, 15] was 0.5 µg/mL, the MICs [1, 16] was 1 µg/mL and the MICs [1, 17] was 4 µg/mL. For the same compound, the MICs [1, 18] was 4 µg/mL, the MICs [1, 19] was 4 µg/mL and the MICs [1, 20] was 8 µg/mL.
N[C@@H]1[C@H]2CN(c3nc4c(cc3F)c(=O)c(C(=O)O)cn4-c3ccc(F)cc3F)C[C@@H]12 [Trova] showed an MIC [1, 3] of 1 µg/mL (≈ 2.4 µM), an MIC [1, 4] of 0.25 µg/mL (≈ 0.6 µM) and an MIC [1, 5] of 1 µg/mL (≈ 2.4 µM). It also gave an MIC [1, 6] of 0.5 µg/mL (≈ 1.2 µM), an MIC [1, 7] of 1 µg/mL (≈ 2.4 µM) and an MIC [1, 8] of 4 µg/mL (≈ 9.61 µM). The MIC [1, 9] was 4 µg/mL (≈ 9.61 µM), the MIC [1, 10] was 4 µg/mL (≈ 9.61 µM) and the MIC [1, 11] was 8 µg/mL (≈ 19.2 µM).
